The text below walks through data of patent US20200000752A1, “Method for Treating Epilepsy” (Vanderbilt University, priority 2016, published 2020).

pIC50: −log10 of the molar value. Some results are limits rather than exact numbers.

Series [1] in a line: Hepatic microsomal clearance (mouse). The class given is in vitro ADME. As to conditions: liver microsomes, pH 7.4. The method, then: Intrinsic clearance and predicted hepatic clearance: Intrinsic clearance will be determined using the substrate depletion approach. Reactions (0.3 mL) will be conducted using a Tecan EVO (San Jose, Calif.) in 96-well polypropylene cluster tubes with a temperature controlled water-jacketed aluminum plate holder held at 37° C. Incubations will be performed in triplicate in 0.1 M potassium phosphate buffer (pH 7.4), 3 mM MgCl2, 1 μM tizanidine, and 1 mg/mL liver microsomes. After incubation mixtures are equilibrated for 3 min at 37° C., reactions will be initiated with 10 mM NADPH to give a final NADPH concentration of 1 mM. At 0, 3, 7, 15, 25, and 45 min, a 25 μL aliquot will be removed from the reactions and delivered into 125 μL of acetonitrile containing an internal standard. The quench plates will then be centrifuged at 3,000×g for 10 min and an aliquot of the supernatants added to an injection plate with an equal volume of water. Samples will then be analyzed using LC/MS/MS.
Intrinsic clearance is calculated as: […]
Species-specific parameters for mouse and human liver protein content will be used. The predicted hepatic clearance will then be estimated using species-specific liver blood flow values: […]
(In general: Microsomes from liver hold many membrane-bound enzymes, among them those of drug oxidation.)

The nature of series [2]: MDCKII bidirectional assay. The class given is in vitro ADME. The note with it: dog. An excerpt:
(§1) MDCKII bidirectional assay was run in collaboration with Dr. Shaun Stauffer in Vanderbilt Institute of Chemical Biology (VICB) synthesis core who is a consultant on this project.

For series [3], the system named is MDCKII cells. Put plainly: MDCKII bidirectional assay. The class given is in vitro ADME. As to conditions: MDCK II bidirectional assay.
Description: as §1

For series [4], the system named is Gabrg2^+/Q390X mice. Put plainly: Early intermittent dosing, survival of Gabrg2+/Q390X mice. The class given is in vivo, mouse. The note with it: 0.3 mg/kg intermittent from postnatal day 7; untreated ~25% mortality. The source says:
(§2) (FIG. 5B, C). Gabrg2^+/Q390X mice in C57/BL/6J background had ˜25% of mortality (B) while Scn1a^+/− mice in C57/BL/6J background had ˜60% of mortality by week 7 (C). […] The Gabrg2^+/Q390X mice were in C57/BL/6J background while Scn1a^+/− sires were from mixed S129/C57BL/6J and the dams were congenic C57/BL/6J. For each mouse model, heterozygous pups of both male and female from 6-8 litters were included.

Series [5] relates to Scn1a^+/− mice. As to the kind of experiment: Early intermittent dosing, survival of Scn1a+/- mice. The class given is in vivo, mouse. As to conditions: 0.3 mg/kg intermittent from postnatal day 7; untreated ~60% mortality by week 7.
Description: as §2

Series [6] relates to cultured cortical neurons from the wild-type mouse brains. Put plainly: Neuronal viability, trypan blue exclusion. The note with it: 0-8 μm for 4 hours, at the therapeutic levels. The class given is cell-based. The method, then: (§3) The neuronal viability was determined with membrane integrity by trypan blue exclusion method^12. The mean survival was determined by counting eight randomly selected, non-overlapping fields with each containing approximately 10-20 neurons (viable+nonviable) (n=4 different cultures). GABAAR expression was determined by the high-throughput flow cytometry. HEK 293T cells were transfected with human α1, β2 and γ2 subunit cDNAs at 1:1:1 ratio for 48 hours. The α1 subunit was chosen as readout. The anti-α1 antibody was directly conjugated with Alexa 488 (data are mean±SEM, n=4). The healthy population was gated.

Series [7] has as its system GABAA receptor α1 subunit. Put plainly: GABAAR α1 subunit expression by high-throughput flow cytometry in HEK 293T cells. The class given is cell-based, human. As for the experimental part:
as §3
HEK 293T cells were transfected with wt γ2 or γ2(Q390X) subunits in combination with al and […] subunits at 1:1:1 cDNA ratio for 48 hrs. […] The cells were either unpermeabilized for surface staining (FIG. 11A, 11C) or permeabilized for total staining (FIG. 11B, 11D). al subunits were probed with mouse anti-α1 subunit antibody conjugated with Alexa 647. The relative al subunit fluorescence intensity (FI) was normalized to the wild-type without celastrol treatment.

The test system of series [8] is mutant γ2(Q390X) subunit protein. Put plainly: Western blot of mutant γ2(Q390X) subunit protein in HEK 293T cells. It counts as cell-based. The note with it: 1 μm for 4 hours. As for the experimental part:
Total lysates from HEK 293T cells expressing wild-type α1β2γ2 (wt) or the mutant α1β2γ2(Q390X) (mut) receptors for 48 hrs from or from 1 year old wt or Gabrg2^+/Q390X (het) mouse brains were analyzed by western blot (FIGS. 10A and 10B).
On the technique in general: A western blot detects proteins with antibodies after separation by electrophoresis.

Series [9] deals with Scn1a^+/− mice. As to the kind of experiment: PTZ-induced seizures in Scn1a+/- mice after 14 days treatment. The class given is in vivo, mouse. The note with it: 0.3 mg/kg IP 14 days; PTZ 50 mg/kg IP.
For series [10], the system named is AKT, active caspase 3. Put plainly: P-AKT immunoblot and active caspase 3 staining in cells and Gabrg2+/Q390X mice. The arrangement: species or system mouse. As for the experimental part:
Total lysates from HEK 293T cells expressing the wild-type (wt) or the mutant α1β2γ2(Q390X) (mut) receptors (FIG. 17A) or from Gabrg2^+/Q390X mouse cortex (17B) were analyzed by SDS-PAGE. The membranes were immunoblotted with the phosphorylated AKT (P-AKT). FIG. 17C. Paraffin-embedded brain sections from 1 year old wild-type (wt) and heterozygous Gabrg2^+/Q390X (het) mice were stained with the active form of caspase 3 (green) and NeuN (red). The cell nuclei were stained with TO-PRO-3 (blue).

The test system of series [11] is Gabrg2^+/Q390X mice. Put plainly: Barnes maze, Gabrg2+/Q390X mice. The class given is in vivo, mouse. The note with it: 0.3 mg/kg IP for 2 weeks, 2-4 months old. As for the experimental part: (§4) Flow chart in FIG. 13A depicts an overview of the Barnes maze. In training trials which are considered as learning test, time spent to locate the target hole was recorded and quantified for each day in each mouse genotype. In probe trials which are considered as memory test, an hour after the last training trial, each mouse was allotted a 300 sec session to find the target hole. […]. The total time spent at each of the 12 holes was assessed.

Series [12] deals with Gabrb3^+/− mice. As to the kind of experiment: Barnes maze, Gabrb3+/- mice. The class given is in vivo, mouse. The note with it: 0.3 mg/kg IP for 2 weeks, 6-8 months old. As for the experimental part: as §4
The subject of series [13] is PI3K/AKT pathway. Put plainly: PI3K/AKT pathway activation in vitro. It counts as cell-based.
In series [14] the test system is cytochrome P450 enzymes (CYPs). As to conditions: cited from earlier work.
For series [15] the following is noted: rats; cited from earlier work.
Series [16] addresses CYP 2C8 (Homo sapiens, UniProt P10632). As to the kind of experiment: biochemical.

CYP 2C8, sequence (P10632 whole entry): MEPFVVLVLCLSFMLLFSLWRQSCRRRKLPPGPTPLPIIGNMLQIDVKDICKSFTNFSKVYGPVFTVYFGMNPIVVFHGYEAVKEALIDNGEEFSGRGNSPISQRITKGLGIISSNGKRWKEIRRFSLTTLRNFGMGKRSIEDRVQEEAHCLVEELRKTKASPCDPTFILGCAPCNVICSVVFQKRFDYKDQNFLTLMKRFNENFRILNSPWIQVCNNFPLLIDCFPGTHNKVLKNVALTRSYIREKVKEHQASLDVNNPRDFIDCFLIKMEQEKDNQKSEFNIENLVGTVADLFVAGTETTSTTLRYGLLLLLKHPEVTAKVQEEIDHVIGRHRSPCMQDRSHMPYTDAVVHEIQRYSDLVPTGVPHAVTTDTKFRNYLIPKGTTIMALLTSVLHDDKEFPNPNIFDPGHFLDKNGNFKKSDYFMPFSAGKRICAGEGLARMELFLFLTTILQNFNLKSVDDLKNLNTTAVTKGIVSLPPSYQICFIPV

As a reminder, the CLint scaled is the rate of metabolic loss divided by the concentration. Low values mean slow turnover, high ones rapid turnover. As usually defined, the Papp is a coefficient for how fast a substance crosses the barrier. Usually Papp A→B stands for how fast a substance crosses the layer from the apical side. The low end stands for slow passage, the high end for fast passage. By pIC50 is commonly meant the IC50 on a negative log10 scale, so that one unit is a factor of ten. With `CC1=C(O)C(=O)C=C2C1=CC=C1[C@@]2(C)CC[C@@]2(C)[C@@H]3C[C@](C)(C(=O)O)CC[C@]3(C)CC[C@]12C` [Celastrol, 3-Hydroxy-9β,13α-dimethyl-2-oxo-24,25,26-trinoroleana-1(10),3,5,7-tetraen-29-oic acid], the intrinsic clearance (CLint scaled) in series [1] worked out at 160 mL/min/kg. Moreover, the Papp in series [2] (MDCK, MDCKII cells, read-out: apparent membrane permeability Papp) was at least 1 ×10⁻⁶ cm/s. In addition, the Papp A→B in [2] (MDCK II bidirectional assay) is 56.5 ×10⁻⁶ cm/s. Besides, in [3], the efflux entry is given as “no significant efflux”. Also, the survival entry in [4] and in series [5] was “completely rescued the survival” each time. In addition, the cell viability result in series [6] is recorded as “no reduced cell viability”. Besides, the cell death entry in [7] (HEK 293T dishes with 2 and 4 μm) is recorded as “Cell death was observed”. Besides, in series [7] (HEK 293T, α1β2γ2, 0-8 μm for 4 hours), the “surface α1 subunits” value is on record as “concentration dependently increased”. Besides, the “mutant γ2(Q390X) subunit protein” value in series [8] is “reduced”. Also, the “seizure threshold and seizures after PTZ” value in [9] is “increased seizure threshold and decreased seizures”. The “active caspase 3” value in series [10] (0.3 mg/kg IP 2 weeks) was “Reducing Active Caspase 3”. Besides, the “AKT (P-AKT)” value in series [10] (0.3 mg/kg IP 2 weeks in mice, HEK 293T cells) is listed as “Activating AKT”. Besides, the “time spent at target hole in probe trial” value in [11] and in [12] was “spent more time in the target hole area” throughout. Further, the PI3K/AKT pathway entry in [13] is given as “activate PI3K/AKT pathway”. Also, the “CYP inhibition as reported in the literature” value in series [14] is on record as “inhibits several CYP enzymes”. The “oral bioavailability (reported)” value in series [15] is 17.1%. This compound showed a pIC50 in series [16] of 5.66.
